Reference: PubChem BioAssay AID248 (DTP/NCI, 2004)
“And” between values parts separate entries of the source, which are not always exact repeats. Equal values may be shown once. Toxic doses and inconclusive results are not listed. Rule as the data show it: active = T/C of 150% or more; inactive = T/C below 125%.

Test system: L1210 leukemia ip in BDF1 mice, survival T/C
Experiment: NCI In Vivo Anticancer Drug Screen. Data for tumor model L1210 Leukemia (intraperitoneal) in B6D2F1 (BDF1) mice
Details: endpoint: mean survival time, higher = longer survival
In short: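 Transplantable tumor model; survival measured in treated vs vehicle control mice. Value = treated/control.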

[1] = dose: 100.0 mg/kg/injection, schedule: Q01DX009 (ip), vehicle: saline with Tween-80
[2] = dose: 100.0 mg/kg/injection, schedule: Q04DX002 (ip), vehicle: saline with Tween-80
[3] = dose: 200.0 mg/kg/injection, schedule: Q01DX009 (ip), vehicle: saline with Tween-80
[4] = dose: 200.0 mg/kg/injection, schedule: Q04DX002 (ip), vehicle: saline with Tween-80
[5] = dose: 400.0 mg/kg/injection, schedule: Q01DX009 (ip), vehicle: saline with Tween-80
[6] = dose: 100.0 mg/kg/injection, schedule: Q01DX009 (ip), vehicle: Klucel (hydroxypropylcellulose) (HPC)
[7] = dose: 100.0 mg/kg/injection, schedule: Q04DX003 (ip), vehicle: Klucel (hydroxypropylcellulose) (HPC)
[8] = dose: 200.0 mg/kg/injection, schedule: Q01DX009 (ip), vehicle: Klucel (hydroxypropylcellulose) (HPC)
[9] = dose: 200.0 mg/kg/injection, schedule: Q04DX003 (ip), vehicle: Klucel (hydroxypropylcellulose) (HPC)
[10] = dose: 400.0 mg/kg/injection, schedule: Q01DX009 (ip), vehicle: Klucel (hydroxypropylcellulose) (HPC)
[11] = dose: 400.0 mg/kg/injection, schedule: Q04DX003 (ip), vehicle: Klucel (hydroxypropylcellulose) (HPC)
[12] = dose: 100.0 mg/kg/injection, schedule: Q01DX009 (ip), vehicle: saline
[13] = dose: 100.0 mg/kg/injection, schedule: Q04DX003 (ip), vehicle: saline
[14] = dose: 200.0 mg/kg/injection, schedule: Q01DX009 (ip), vehicle: saline
[15] = dose: 200.0 mg/kg/injection, schedule: Q04DX003 (ip), vehicle: saline
[16] = dose: 400.0 mg/kg/injection, schedule: Q01DX009 (ip), vehicle: saline
[17] = dose: 400.0 mg/kg/injection, schedule: Q04DX003 (ip), vehicle: saline
[18] = dose: 100.0 mg/kg/injection, schedule: Q01DX001 (ip), vehicle: saline
[19] = dose: 200.0 mg/kg/injection, schedule: Q01DX001 (ip), vehicle: saline
[20] = dose: 400.0 mg/kg/injection, schedule: Q01DX001 (ip), vehicle: saline

Measured: T/C

O=C(NC(=S)Nc1cccc2ccc(O)cc12)c1ccc(Cl)cc1Cl
inactive: dose: 100.0 mg/kg/injection, schedule: Q01DX001 (ip), vehicle: saline with Tween-80 101 % of control | [1] 94 % of control and 106 % of control | [2] 103 % of control and 92 % of control | dose: 100.0 mg/kg/injection, schedule: Q04DX003 (ip), vehicle: saline with Tween-80 100 % of control | dose: 200.0 mg/kg/injection, schedule: Q01DX001 (ip), vehicle: saline with Tween-80 92 % of control | [3] 98 % of control and 101 % of control | [4] 95 % of control and 103 % of control | dose: 200.0 mg/kg/injection, schedule: Q04DX003 (ip), vehicle: saline with Tween-80 97 % of control | dose: 400.0 mg/kg/injection, schedule: Q01DX001 (ip), vehicle: saline with Tween-80 103 % of control | [5] 103 % of control and 108 % of control | dose: 400.0 mg/kg/injection, schedule: Q04DX002 (ip), vehicle: saline with Tween-80 97 % of control and 98 % of control | dose: 400.0 mg/kg/injection, schedule: Q04DX003 (ip), vehicle: saline with Tween-80 92 % of control

N#CSc1ccc(Nc2ccc(SC#N)cc2)cc1
inactive: dose: 12.5 mg/kg/injection, schedule: Q01DX009 (ip), vehicle: Klucel (hydroxypropylcellulose) (HPC) 95 % of control | dose: 25.0 mg/kg/injection, schedule: Q01DX009 (ip), vehicle: Klucel (hydroxypropylcellulose) (HPC) 98 % of control

CCOc1cccc(OC(C)=O)c1
inactive: dose: 75.0 mg/kg/injection, schedule: Q01DX001 (ip), vehicle: carboxymethylcellulose (CMC) 103 % of control | dose: 150.0 mg/kg/injection, schedule: Q01DX001 (ip), vehicle: carboxymethylcellulose (CMC) 90 % of control

O=C(Nc1cccc(O)c1)Nc1cc([N+](=O)[O-])ccc1F
inactive: dose: 100.0 mg/kg/injection, schedule: Q01DX001 (ip), vehicle: Klucel (hydroxypropylcellulose) (HPC) 91 % of control | [6] 100 % of control and 90 % of control | [7] 93 % of control | dose: 200.0 mg/kg/injection, schedule: Q01DX001 (ip), vehicle: Klucel (hydroxypropylcellulose) (HPC) 98 % of control | [8] 94 % of control and 95 % of control | [9] 102 % of control | dose: 400.0 mg/kg/injection, schedule: Q01DX001 (ip), vehicle: Klucel (hydroxypropylcellulose) (HPC) 94 % of control | [10] 94 % of control and 100 % of control | [11] 95 % of control

CCN(CC)C(N)=S
inactive: [6] 108 % of control | [7] 106 % of control | [8] 100 % of control | [9] 103 % of control | [10] 100 % of control | [11] 112 % of control

C=C1CCC2(C(C)C)CC12 (stereo not drawn)
inactive: [12] 103 % of control | [13] 96 % of control | [14] 93 % of control | [15] 110 % of control | [16] 94 % of control | [17] 100 % of control

[CH3][Sb]1([CH3])([I])[CH2]CCC[CH2]1
inactive: [13] 97 % of control | [15] 97 % of control

CCN(CC)CCNc1nc2ccc(C(=O)O)cc2s1
inactive: dose: 75.0 mg/kg/injection, schedule: Q01DX001 (ip), vehicle: saline 100 % of control | dose: 150.0 mg/kg/injection, schedule: Q01DX001 (ip), vehicle: saline 98 % of control | dose: 300.0 mg/kg/injection, schedule: Q01DX001 (ip), vehicle: saline 94 % of control

CCCCNC(c1ccccc1)C(Cl)c1ccccc1 (stereo not drawn)
inactive: [7] 97 % of control | [9] 97 % of control

CCn1cc(C(=O)O)c(=O)c2ccc(-c3ccncc3)cc21
inactive: [6] 98 % of control | [7] 91 % of control | [8] 101 % of control | [9] 91 % of control | [10] 102 % of control | [11] 89 % of control

CN(C)NC(=O)CC(NCc1ccccc1)C(=O)O (stereo not drawn)
inactive: [1] 94 % of control | [3] 95 % of control | [5] 95 % of control

COc1cc(I)c(CC(=O)O)cc1OC
inactive: [18] 97 % of control | [12] 93 % of control | [13] 96 % of control | [19] 97 % of control | [14] 91 % of control | [15] 96 % of control | [20] 96 % of control | [16] 96 % of control | [17] 90 % of control

CN(C/C=C/CN(C)P(=O)(N1CC1)N1CC1)P(=O)(N1CC1)N1CC1
inactive: dose: 6.25 mg/kg/injection, schedule: Q01DX009 (ip), vehicle: saline 107 % of control

Cc1c(C(C)(C(=O)O)c2c(C)n(C)c3ccccc23)c2ccccc2n1C
inactive: dose: 50.0 mg/kg/injection, schedule: Q01DX001 (ip), vehicle: other 96 % of control | dose: 100.0 mg/kg/injection, schedule: Q01DX001 (ip), vehicle: other 93 % of control | dose: 200.0 mg/kg/injection, schedule: Q01DX001 (ip), vehicle: other 91 % of control | dose: 400.0 mg/kg/injection, schedule: Q01DX001 (ip), vehicle: other 96 % of control

CC(C)(C)C(=O)/C=C(\C=S(C)(C)=O)c1ccccc1
inactive: dose: 25.0 mg/kg/injection, schedule: Q04DX003 (ip), vehicle: saline 105 % of control | dose: 50.0 mg/kg/injection, schedule: Q04DX003 (ip), vehicle: saline 97 % of control | [13] 100 % of control

COc1ccc(/C=C(\CC(=O)c2ccccc2)C(=O)Nc2ccccc2)cc1
inactive: [18] 93 % of control | [13] 109 % of control | [19] 96 % of control | [15] 98 % of control | [20] 103 % of control | [17] 95 % of control

CN(C)CCCNC1=C(Cl)C(=O)C(NCCCN(C)C)=C(Cl)C1=O
inactive: dose: 100.0 mg/kg/injection, schedule: Q04DX003 (ip), vehicle: acetone 89 % of control

COc1cc(Cl)ccc1NC(=O)Oc1ccc(F)cc1
inactive: [12] 123 % of control | [14] 101 % of control | [16] 115 % of control

CCC1(c2ccccc2)C(=O)N(CBr)C(=O)N(CBr)C1=O
inactive: [1] 90 % of control | [2] 92 % of control | [4] 100 % of control

CC1=[N+](CCS(C)(=O)=O)C(C)CCC1 (stereo not drawn)
inactive: dose: 50.0 mg/kg/injection, schedule: Q01DX001 (ip), vehicle: saline 115 % of control | [18] 110 % of control | [19] 106 % of control | [20] 106 % of control

CCOC(=O)c1ccc(NC(=O)CN2CCOCC2)cc1
inactive: dose: 222.0 mg/kg/injection, schedule: Q01DX Z (ip), vehicle: saline 102 % of control | dose: 333.0 mg/kg/injection, schedule: Q01DX Z (ip), vehicle: saline 98 % of control | dose: 500.0 mg/kg/injection, schedule: Q01DX Z (ip), vehicle: saline 90 % of control

CSc1nncc(-c2cnnc(SC)n2)n1
inactive: dose: 100.0 mg/kg/injection, schedule: Q04DX002 (ip), vehicle: Klucel (hydroxypropylcellulose) (HPC) 108 % of control | dose: 200.0 mg/kg/injection, schedule: Q04DX002 (ip), vehicle: Klucel (hydroxypropylcellulose) (HPC) 94 % of control

COc1ccc(OC)c(CC(CC(=O)O)(C(=O)O)C(=O)O)c1
inactive: [7] 91 % of control | [9] 96 % of control | [11] 96 % of control

CCOc1ccc(NC(=S)NC(=O)C(C)Oc2ccccc2)cc1 (stereo not drawn)
inactive: dose: 50.0 mg/kg/injection, schedule: Q01DX009 (ip), vehicle: saline with Tween-80 102 % of control | dose: 800.0 mg/kg/injection, schedule: Q04DX002 (ip), vehicle: saline with Tween-80 96 % of control and 101 % of control

O=[N+]([O-])c1ccc(OP(=O)(Oc2ccc([N+](=O)[O-])cc2)Oc2ccc([N+](=O)[O-])cc2)cc1
inactive: dose: 100.0 mg/kg/injection, schedule: Q04DX003 (ip), vehicle: gum acacia 97 % of control and 107 % of control | dose: 200.0 mg/kg/injection, schedule: Q04DX003 (ip), vehicle: gum acacia 92 % of control and 103 % of control | dose: 400.0 mg/kg/injection, schedule: Q04DX003 (ip), vehicle: gum acacia 94 % of control and 95 % of control

CCCC/C=C/C#N
inactive: dose: 75.0 mg/kg/injection, schedule: Q01DX009 (ip), vehicle: saline 100 % of control | [18] 106 % of control | [13] 98 % of control | dose: 150.0 mg/kg/injection, schedule: Q01DX009 (ip), vehicle: saline 97 % of control | [19] 96 % of control | [15] 101 % of control | [20] 92 % of control | [17] 94 % of control
